Legend:
Type in all cases: in vivo
beet [1] = assay: Test Example 4: foliar treatment, effect on crop; f: beet; settings: treatment dosage 315 g/ha
In short: (§1)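 Seeds are spot-sown into sterilized diluvial soil and covered with about 1.5 cm of soil. After 14 days' greenhouse growth at 25 to 30° C, plants are sprayed on stems and leaves with diluted emulsion at the stated g/ha rate, then scored at 3 weeks.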

wild oat [2] = assay: Test Example 4: weedkilling efficacy by foliar treatment; G: wild oat; settings: treatment dosage 315 g/ha
In short: as §1

green foxtail [3] = assay: Test Example 3: weedkilling efficacy through soil treatment; E: green foxtail; settings: treatment dosage 315 g/ha
In short: (§2)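 Crop and weed responses were judged three weeks after a uniform surface spray of the water-diluted emulsion at the given g/ha rate. Seeds sat beneath about 1.5 cm of sterilized diluvial soil, and boxes stood in a greenhouse at 25 to 30° C.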

soybean [4] = assay: Test Example 3: soil treatment, effect on crop; d: soybean; settings: treatment dosage 315 g/ha
In short: as §2

fig-leafed goosefoot [5] = assay: Test Example 4: weedkilling efficacy by foliar treatment; M: fig-leafed goosefoot; settings: treatment dosage 315 g/ha
In short: as §1

birds-eye speedwell [6] = assay: Test Example 4: weedkilling efficacy by foliar treatment; p: birds-eye speedwell; settings: treatment dosage 315 g/ha
In short: as §1

chickweed [7] = assay: Test Example 3: weedkilling efficacy through soil treatment; N: chickweed; settings: treatment dosage 315 g/ha
In short: as §2

oval-leafed pondweed [8] = assay: Test Example 2: weedkilling efficacy, growth period weed treatment in the submerged state; C: oval-leafed pondweed; settings: treatment dosage 252 g/ha
In short: (§3)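 First, alluvial soil in pots is flooded to 4 cm and mixed seed is sown. Next, plants grow in a greenhouse at 25 to 30° C until the 1-2 leaf stage. Then diluted emulsion is applied onto the water surface at the given g/ha rate, and injury is assessed after 3 weeks.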

Indian mallow [9] = assay: Test Example 4: weedkilling efficacy by foliar treatment; K: Indian mallow; settings: treatment dosage 315 g/ha
In short: as §1

green foxtail [10] = assay: Test Example 4: weedkilling efficacy by foliar treatment; E: green foxtail; settings: treatment dosage 315 g/ha
In short: as §1

transplanted rice = assay: Test Example 1: preemergent weed treatment in the submerged state, effect on crop; a: transplanted rice; settings: treatment dosage 252 g/ha
In short: (§4)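 Alluvial soil in Wagner pots flooded to 4 cm; barnyard grass, bulrush and oval-leafed pondweed seeds sown, then 2.5-leaf rice seedlings transplanted. Same day, emulsified compound diluted in water to set g/ha dosages and applied to water surface; greenhouse 25–30 °C, effect scored by criteria after 3 weeks.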

fig-leafed goosefoot [11] = assay: Test Example 3: weedkilling efficacy through soil treatment; M: fig-leafed goosefoot; settings: treatment dosage 315 g/ha
In short: as §2

crabgrass [12] = assay: Test Example 4: weedkilling efficacy by foliar treatment; D: crabgrass; settings: treatment dosage 315 g/ha
In short: as §1

barnyard grass [13] = assay: Test Example 1: weedkilling efficacy, preemergent weed treatment in the submerged state; A: barnyard grass; settings: treatment dosage 252 g/ha
In short: as §4

catchweed = assay: Test Example 4: weedkilling efficacy by foliar treatment; O: catchweed; settings: treatment dosage 315 g/ha
In short: as §1

wheat [14] = assay: Test Example 4: foliar treatment, effect on crop; e: wheat; settings: treatment dosage 315 g/ha
In short: as §1

corn [15] = assay: Test Example 4: foliar treatment, effect on crop; c: corn; settings: treatment dosage 315 g/ha
In short: as §1

corn [16] = assay: Test Example 3: soil treatment, effect on crop; c: corn; settings: treatment dosage 315 g/ha
In short: as §2

wild oat [17] = assay: Test Example 3: weedkilling efficacy through soil treatment; G: wild oat; settings: treatment dosage 315 g/ha
In short: as §2

beet [18] = assay: Test Example 3: soil treatment, effect on crop; f: beet; settings: treatment dosage 315 g/ha
In short: as §2

redroot pigweed [19] = assay: Test Example 3: weedkilling efficacy through soil treatment; L: redroot pigweed; settings: treatment dosage 315 g/ha
In short: as §2

black-grass [20] = assay: Test Example 4: weedkilling efficacy by foliar treatment; H: black-grass; settings: treatment dosage 315 g/ha
In short: as §1

directly sown rice [21] = assay: Test Example 3: soil treatment, effect on crop; b: directly sown rice; settings: treatment dosage 315 g/ha
In short: as §2

Italian ryegrass [22] = assay: Test Example 3: weedkilling efficacy through soil treatment; I: Italian ryegrass; settings: treatment dosage 315 g/ha
In short: as §2

barnyard grass [23] = assay: Test Example 2: weedkilling efficacy, growth period weed treatment in the submerged state; A: barnyard grass; settings: treatment dosage 252 g/ha
In short: as §3

bulrush [24] = assay: Test Example 2: weedkilling efficacy, growth period weed treatment in the submerged state; B: bulrush; settings: treatment dosage 252 g/ha
In short: as §3

redroot pigweed [25] = assay: Test Example 4: weedkilling efficacy by foliar treatment; L: redroot pigweed; settings: treatment dosage 315 g/ha
In short: as §1

directly sown rice [26] = assay: Test Example 4: foliar treatment, effect on crop; b: directly sown rice; settings: treatment dosage 315 g/ha
In short: as §1

wheat [27] = assay: Test Example 3: soil treatment, effect on crop; e: wheat; settings: treatment dosage 315 g/ha
In short: as §2

black-grass [28] = assay: Test Example 3: weedkilling efficacy through soil treatment; H: black-grass; settings: treatment dosage 315 g/ha
In short: as §2

soybean [29] = assay: Test Example 4: foliar treatment, effect on crop; d: soybean; settings: treatment dosage 315 g/ha
In short: as §1

bulrush [30] = assay: Test Example 1: weedkilling efficacy, preemergent weed treatment in the submerged state; B: bulrush; settings: treatment dosage 252 g/ha
In short: as §4

Indian mallow [31] = assay: Test Example 3: weedkilling efficacy through soil treatment; K: Indian mallow; settings: treatment dosage 315 g/ha
In short: as §2

chickweed [32] = assay: Test Example 4: weedkilling efficacy by foliar treatment; N: chickweed; settings: treatment dosage 315 g/ha
In short: as §1

crabgrass [33] = assay: Test Example 3: weedkilling efficacy through soil treatment; D: crabgrass; settings: treatment dosage 315 g/ha
In short: as §2

oval-leafed pondweed [34] = assay: Test Example 1: weedkilling efficacy, preemergent weed treatment in the submerged state; C: oval-leafed pondweed; settings: treatment dosage 252 g/ha
In short: as §4

Italian ryegrass [35] = assay: Test Example 4: weedkilling efficacy by foliar treatment; I: Italian ryegrass; settings: treatment dosage 315 g/ha
In short: as §1

birds-eye speedwell [36] = assay: Test Example 3: weedkilling efficacy through soil treatment; p: birds-eye speedwell; settings: treatment dosage 315 g/ha
In short: as §2

CC1=C(c2ccccc2)C(=O)N(C(C)(C)C(=O)Nc2cc(Cl)cc(Cl)n2)CO1 [B-2-34]
f (beet) effect on crop grade (beet [1]): 4 (weed kill ratio 70% or more, less than 90%)
G (wild oat) weedkilling efficacy grade (wild oat [2]): 5 (weed kill ratio 90% or more, (practically complete withering))
E (green foxtail) weedkilling efficacy grade (green foxtail [3]): 5 (weed kill ratio 90% or more, (practically complete withering))
d (soybean) effect on crop grade (soybean [4]): 1 (weed kill ratio 5% or more, less than 20%)
M (fig-leafed goosefoot) weedkilling efficacy grade (fig-leafed goosefoot [5]): 3 (weed kill ratio 40% or more, less than 70%)
P (birds-eye speedwell) weedkilling efficacy grade (birds-eye speedwell [6]): 3 (weed kill ratio 40% or more, less than 70%)
N (chickweed) weedkilling efficacy grade (chickweed [7]): 5 (weed kill ratio 90% or more, (practically complete withering))
C (oval-leafed pondweed) weedkilling efficacy grade (oval-leafed pondweed [8]): 5 (weed kill ratio 90% or more, (practically complete withering))
K (Indian mallow) weedkilling efficacy grade (Indian mallow [9]): 5 (weed kill ratio 90% or more, (practically complete withering))
E (green foxtail) weedkilling efficacy grade (green foxtail [10]): 5 (weed kill ratio 90% or more, (practically complete withering))
a (transplanted rice) effect on crop grade (transplanted rice): 0 (weed kill ratio 5% or less (practically no effect))
M (fig-leafed goosefoot) weedkilling efficacy grade (fig-leafed goosefoot [11]): 4 (weed kill ratio 70% or more, less than 90%)
D (crabgrass) weedkilling efficacy grade (crabgrass [12]): 5 (weed kill ratio 90% or more, (practically complete withering))
A (barnyard grass) weedkilling efficacy grade (barnyard grass [13]): 5 (weed kill ratio 90% or more, (practically complete withering))
O (catchweed) weedkilling efficacy grade (catchweed): 0 (weed kill ratio 5% or less (practically no effect))
e (wheat) effect on crop grade (wheat [14]): 1 (weed kill ratio 5% or more, less than 20%)
c (corn) effect on crop grade (corn [15]): 3 (weed kill ratio 40% or more, less than 70%)
c (corn) effect on crop grade (corn [16]): 2 (weed kill ratio 20% or more, less than 40%)
G (wild oat) weedkilling efficacy grade (wild oat [17]): 5 (weed kill ratio 90% or more, (practically complete withering))
f (beet) effect on crop grade (beet [18]): 5 (weed kill ratio 90% or more, (practically complete withering))
L (redroot pigweed) weedkilling efficacy grade (redroot pigweed [19]): 5 (weed kill ratio 90% or more, (practically complete withering))
H (black-grass) weedkilling efficacy grade (black-grass [20]): 5 (weed kill ratio 90% or more, (practically complete withering))
b (directly sown rice) effect on crop grade (directly sown rice [21]): 5 (weed kill ratio 90% or more, (practically complete withering))
I (Italian ryegrass) weedkilling efficacy grade (Italian ryegrass [22]): 5 (weed kill ratio 90% or more, (practically complete withering))
A (barnyard grass) weedkilling efficacy grade (barnyard grass [23]): 5 (weed kill ratio 90% or more, (practically complete withering))
B (bulrush) weedkilling efficacy grade (bulrush [24]): 5 (weed kill ratio 90% or more, (practically complete withering))
L (redroot pigweed) weedkilling efficacy grade (redroot pigweed [25]): 4 (weed kill ratio 70% or more, less than 90%)
b (directly sown rice) effect on crop grade (directly sown rice [26]): 5 (weed kill ratio 90% or more, (practically complete withering))
e (wheat) effect on crop grade (wheat [27]): 1 (weed kill ratio 5% or more, less than 20%)
H (black-grass) weedkilling efficacy grade (black-grass [28]): 5 (weed kill ratio 90% or more, (practically complete withering))
d (soybean) effect on crop grade (soybean [29]): 5 (weed kill ratio 90% or more, (practically complete withering))
B (bulrush) weedkilling efficacy grade (bulrush [30]): 5 (weed kill ratio 90% or more, (practically complete withering))
K (Indian mallow) weedkilling efficacy grade (Indian mallow [31]): 5 (weed kill ratio 90% or more, (practically complete withering))
N (chickweed) weedkilling efficacy grade (chickweed [32]): 3 (weed kill ratio 40% or more, less than 70%)
D (crabgrass) weedkilling efficacy grade (crabgrass [33]): 5 (weed kill ratio 90% or more, (practically complete withering))
C (oval-leafed pondweed) weedkilling efficacy grade (oval-leafed pondweed [34]): 5 (weed kill ratio 90% or more, (practically complete withering))
I (Italian ryegrass) weedkilling efficacy grade (Italian ryegrass [35]): 5 (weed kill ratio 90% or more, (practically complete withering))

CC1=C(c2ccccc2)C(=O)N(C(C)(C)C(=O)Nc2cc(Cl)nc(Cl)c2)CO1 [B-4-05]
f (beet) effect on crop grade (beet [1]): 0 (weed kill ratio 5% or less (practically no effect))
G (wild oat) weedkilling efficacy grade (wild oat [2]): 4 (weed kill ratio 70% or more, less than 90%)
E (green foxtail) weedkilling efficacy grade (green foxtail [3]): 5 (weed kill ratio 90% or more, (practically complete withering))
d (soybean) effect on crop grade (soybean [4]): 0 (weed kill ratio 5% or less (practically no effect))
M (fig-leafed goosefoot) weedkilling efficacy grade (fig-leafed goosefoot [5]): 2 (weed kill ratio 20% or more, less than 40%)
P (birds-eye speedwell) weedkilling efficacy grade (birds-eye speedwell [6]): 4 (weed kill ratio 70% or more, less than 90%)
N (chickweed) weedkilling efficacy grade (chickweed [7]): 3 (weed kill ratio 40% or more, less than 70%)
K (Indian mallow) weedkilling efficacy grade (Indian mallow [9]): 3 (weed kill ratio 40% or more, less than 70%)
E (green foxtail) weedkilling efficacy grade (green foxtail [10]): 5 (weed kill ratio 90% or more, (practically complete withering))
a (transplanted rice) effect on crop grade (transplanted rice): 0 (weed kill ratio 5% or less (practically no effect))
M (fig-leafed goosefoot) weedkilling efficacy grade (fig-leafed goosefoot [11]): 4 (weed kill ratio 70% or more, less than 90%)
D (crabgrass) weedkilling efficacy grade (crabgrass [12]): 5 (weed kill ratio 90% or more, (practically complete withering))
A (barnyard grass) weedkilling efficacy grade (barnyard grass [13]): 5 (weed kill ratio 90% or more, (practically complete withering))
O (catchweed) weedkilling efficacy grade (catchweed): 1 (weed kill ratio 5% or more, less than 20%)
e (wheat) effect on crop grade (wheat [14]): 0 (weed kill ratio 5% or less (practically no effect))
c (corn) effect on crop grade (corn [15]): 3 (weed kill ratio 40% or more, less than 70%)
c (corn) effect on crop grade (corn [16]): 0 (weed kill ratio 5% or less (practically no effect))
G (wild oat) weedkilling efficacy grade (wild oat [17]): 5 (weed kill ratio 90% or more, (practically complete withering))
L (redroot pigweed) weedkilling efficacy grade (redroot pigweed [19]): 4 (weed kill ratio 70% or more, less than 90%)
H (black-grass) weedkilling efficacy grade (black-grass [20]): 4 (weed kill ratio 70% or more, less than 90%)
b (directly sown rice) effect on crop grade (directly sown rice [21]): 5 (weed kill ratio 90% or more, (practically complete withering))
I (Italian ryegrass) weedkilling efficacy grade (Italian ryegrass [22]): 5 (weed kill ratio 90% or more, (practically complete withering))
A (barnyard grass) weedkilling efficacy grade (barnyard grass [23]): 4 (weed kill ratio 70% or more, less than 90%)
B (bulrush) weedkilling efficacy grade (bulrush [24]): 5 (weed kill ratio 90% or more, (practically complete withering))
L (redroot pigweed) weedkilling efficacy grade (redroot pigweed [25]): 3 (weed kill ratio 40% or more, less than 70%)
b (directly sown rice) effect on crop grade (directly sown rice [26]): 5 (weed kill ratio 90% or more, (practically complete withering))
e (wheat) effect on crop grade (wheat [27]): 0 (weed kill ratio 5% or less (practically no effect))
H (black-grass) weedkilling efficacy grade (black-grass [28]): 5 (weed kill ratio 90% or more, (practically complete withering))
d (soybean) effect on crop grade (soybean [29]): 3 (weed kill ratio 40% or more, less than 70%)
P (birds-eye speedwell) weedkilling efficacy grade (birds-eye speedwell [36]): 5 (weed kill ratio 90% or more, (practically complete withering))
B (bulrush) weedkilling efficacy grade (bulrush [30]): 5 (weed kill ratio 90% or more, (practically complete withering))
K (Indian mallow) weedkilling efficacy grade (Indian mallow [31]): 3 (weed kill ratio 40% or more, less than 70%)
N (chickweed) weedkilling efficacy grade (chickweed [32]): 2 (weed kill ratio 20% or more, less than 40%)
D (crabgrass) weedkilling efficacy grade (crabgrass [33]): 5 (weed kill ratio 90% or more, (practically complete withering))
C (oval-leafed pondweed) weedkilling efficacy grade (oval-leafed pondweed [34]): 5 (weed kill ratio 90% or more, (practically complete withering))
I (Italian ryegrass) weedkilling efficacy grade (Italian ryegrass [35]): 5 (weed kill ratio 90% or more, (practically complete withering))
